According to patent US4945160A, “Preparation of certain 7-substituted quinolones” (Warner-Lambert Company, priority 1988, dated 1990):
≈ marks a conversion by molar mass, not a printed value. Read-outs that look alike come from different tables or passages of the source.

Experiments:
Assay type in all cases: cell-based
P. rettgeri = assay: In vitro antibacterial activity, microdilution MIC, P. rettgeri; conditions: Providencia rettgeri, microdilution method, read-out: Minimal Inhibitory Concentration MIC
Text: (§1) The compounds of the invention display antibacterial activity when tested by the microdilution method as described in Heifetz, et al, Antimicr. Agents and Chemoth., 6, 124 (1974), which is incorporated herein by reference.
(§2) By use of this method, the following minimum inhibitory concentration values (MICs in μg/ml) were obtained for representative compounds of the invention.

S. pyogenes = assay: In vitro antibacterial activity, microdilution MIC, S. pyogenes; conditions: Streptococcus pyogenes, microdilution method, read-out: Minimal Inhibitory Concentration MIC
Text: as §1, §2

S. pneumoniae = assay: In vitro antibacterial activity, microdilution MIC, S. pneumoniae; conditions: Streptococcus pneumoniae, microdilution method, read-out: Minimal Inhibitory Concentration MIC
Text: as §1, §2

S. faecalis = assay: In vitro antibacterial activity, microdilution MIC, S. faecalis; conditions: Enterococcus faecalis, microdilution method, read-out: Minimal Inhibitory Concentration MIC
Text: as §1, §2

P. aeruginosa = assay: In vitro antibacterial activity, microdilution MIC, P. aeruginosa; conditions: Pseudomonas aeruginosa, microdilution method, read-out: Minimal Inhibitory Concentration MIC
Text: as §1, §2

K. pneumoniae = assay: In vitro antibacterial activity, microdilution MIC, K. pneumoniae; conditions: Klebsiella pneumoniae, microdilution method, read-out: Minimal Inhibitory Concentration MIC
Text: as §1, §2

S. aureus = assay: In vitro antibacterial activity, microdilution MIC, S. aureus; conditions: microdilution method; for MIC: Staphylococcus aureus, first S. aureus line (strain not given), read-out: Minimal Inhibitory Concentration MIC; for Minimal Inhibitory Concentration MIC: second S. aureus line (strain not given)
Text: as §1, §2

E. coli = assay: In vitro antibacterial activity, microdilution MIC, E. coli; conditions: Escherichia coli, microdilution method, read-out: Minimal Inhibitory Concentration MIC
Text: as §1, §2

E. cloacae = assay: In vitro antibacterial activity, microdilution MIC, E. cloacae; conditions: Enterobacter cloacae, microdilution method, read-out: Minimal Inhibitory Concentration MIC
Text: as §1, §2

[1] = first E. coli line (strain not given)
[2] = second E. coli line, last of table (strain not given)

SMILES	MIC (P. rettgeri)	MIC (S. pyogenes)	MIC (S. pneumoniae)	MIC (S. faecalis)	MIC (P. aeruginosa)	MIC (K. pneumoniae)	MIC (S. aureus)	Minimal Inhibitory Concentration MIC (S. aureus)	MIC (E. coli; [1])	MIC (E. coli; [2])	MIC (E. cloacae)
C=Cc1c(F)cc2c(=O)c(C(=O)O)cn(C3CC3)c2c1F [Compound 5, 1-Cyclopropyl-7-ethenyl-6,8-difluoro-1,4-dihydro-4-oxo-3-quinolinecarboxylic acid]	0.4 µg/mL (≈ 1.37 µM)	0.8 µg/mL (≈ 2.75 µM)	0.8 µg/mL (≈ 2.75 µM)	0.2 µg/mL (≈ 0.687 µM)	1.6 µg/mL (≈ 5.49 µM)	0.4 µg/mL (≈ 1.37 µM)	≤ 0.025 µg/mL	≤ 0.025 µg/mL	0.2 µg/mL (≈ 0.687 µM)	0.1 µg/mL (≈ 0.343 µM)	0.1 µg/mL (≈ 0.343 µM)
CCn1cc(C(=O)O)c(=O)c2cc(F)c(C3CCN(Cc4ccccc4)C3)nc21 (stereo not shown) [Compound 10]	> 25 µg/mL	12.5 µg/mL (≈ 31.6 µM)	12.5 µg/mL (≈ 31.6 µM)	25 µg/mL (≈ 63.2 µM)	> 25 µg/mL	25 µg/mL (≈ 63.2 µM)	6.3 µg/mL (≈ 15.9 µM)	6.3 µg/mL	12.5 µg/mL (≈ 31.6 µM)	12.5 µg/mL (≈ 31.6 µM)	12.5 µg/mL (≈ 31.6 µM)
